According to patent publication US5262417A, “Antibacterial quinolone compounds” (The Upjohn Company, priority 1991, dated 1993):
Values after ≈ are worked out from the molar mass of the structure shown. Values joined by “and” are separate entries in the source; they are usually repeats but may differ in a detail not shown here. Equal values may be shown once. Read-outs that look alike come from different tables or passages of the source.

Assays:
Assay type in all cases: cell-based
[1] = system: Escherichia coli UC 51 (EC); assay: Dipped disk (disk-diffusion) assay, disks loaded with 0.10 ml; parameters: zone of inhibition: dose or concentration left out as unconfirmed
Protocol: (§1) The effectiveness of the subject compounds on some bacteria were obtained by performing a dipped disk assay. The antibacterial activity of the compounds is determined by the disk-diffusion method. […] They were then applied to the surface of microorganism-seeded agar assay trays, which contained the bacterial strain Pseudomonas aeruginosa UC 95 )PA), Escherichia coli UC 51 (EC) or Staphylococcus aureus UC 80 (SA). The assay trays were incubated overnight under aerobic condition to allow for the growth of the organisms. Zones of growth inhibition due to the action of the antibiotic were then measured to the nearest millimeter.

[2] = system: Streptococcus pyogenes; assay: Minimum inhibitory concentration (MIC) by agar dilution; conditions: for MIC: Streptococcus pyogenes
How it was run: (§2)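 NCCLS agar dilution (1983 method). Unsupplemented MHA; cpd serially diluted into molten agar at 47° C. Inoculum: overnight MHA culture at 35° C → TSB to 0.5 McFarland, 1:20 dilution, 1 μl spots via Steers replicator.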

[3] = system: Staphylococcus aureus; assay: as above; conditions: for MIC: Staphylococcus aureus
How it was run: as §2

[4] = system: Klebsiella pneumoniae; assay: as above
How it was run: as §2

[5] = system: Citerobacter freundii; assay: as above
How it was run: as §2

[6] = system: Staphylococcus epidermidis; assay: as above; conditions: 20 h
How it was run: as §2

[7] = system: Streptococcus pneumoniae; assay: as above; conditions: for MIC: Streptococcus pneumoniae
How it was run: as §2

[8] = system: Proteus penneri; assay: as above; conditions: for MIC: Proteus penneri
How it was run: as §2

[9] = system: Streptococcus faecalis; assay: as above; conditions: Enterococcus faecalis
How it was run: as §2

[10] = system: Acinetobacter calcoaceticus; assay: as above; conditions: for MIC: Acinetobacter calcoaceticus
How it was run: as §2

[11] = system: Escherichia coli; assay: as above; conditions: for MIC: Escherichia coli
How it was run: as §2

[12] = system: Serratia marcescens; assay: as above; conditions: 20 h, read-out: MINIMUM INHIBITORY CONCENTRATION
How it was run: as §2

[13] = system: Pseudomonas aeruginosa; assay: as above; conditions: for MIC: Pseudomonas aeruginosa
How it was run: as §2

[14] = system: Staphylococcus aureus UC 80 (SA); assay: Dipped disk (disk-diffusion) assay, disks loaded with 0.10 ml
Protocol: as §1

[15] = system: Pseudomonas aeruginosa UC 95 (PA); assay: as above; conditions: Pseudomonas aeruginosa, UC95; Conc 1 mg/ml, 0.10 ml per disk; read-out: Growth Inhibition Zone, PA
Protocol: as §1

[16] = 20 h, read-out: MINIMUM INHIBITORY CONCENTRATION

O=C(O)c1cn(C2CC2)c2cc(N3CCNCC3)c(F)cc2c1=O [Ciprofloxacin, reference compound]
Growth Inhibition Zone, EC ([1]; Conc 1 mg/ml, 0.10 ml per disk): 35 mm | zone of inhibition ([1]; Escherichia coli, UC51, 0.10 ml per disk, read-out: Growth Inhibition Zone, EC): 33 mm | MINIMUM INHIBITORY CONCENTRATION ([2]; Cult No. 152, MHA): 0.25 mcg per ml and 0.125 mcg per ml | MIC ([2]; 20 h, read-out: MINIMUM INHIBITORY CONCENTRATION, Cult No. 152, MHA): 0.25 mg/L (≈ 0.754 µM) | MIC ([2]; UC152, 20 h, read-out: Minimum Inhibitory Concentration, S. pyogenes UC 152, Table CI): 0.25 mg/L (≈ 0.754 µM) | MINIMUM INHIBITORY CONCENTRATION ([3]; Cult No. 6685, MHA): 0.25 mcg per ml and 0.125 mcg per ml | MINIMUM INHIBITORY CONCENTRATION ([3]; Cult No. 9213, MHA): 1 mcg per ml and 0.5 mcg per ml | MINIMUM INHIBITORY CONCENTRATION ([3]; Cult No. 9218, MHA): 0.5 mcg per ml and 0.25 mcg per ml | MIC ([3]; 20 h, read-out: MINIMUM INHIBITORY CONCENTRATION, Cult No. 3665, MHA): 1 mg/L (≈ 3.02 µM) | MIC ([3]; 20 h, read-out: MINIMUM INHIBITORY CONCENTRATION, Cult No. 6685, MHA): 0.25 mg/L (≈ 0.754 µM) | MIC ([3]; 20 h, read-out: MINIMUM INHIBITORY CONCENTRATION, Cult No. 9213, MHA): 1 mg/L (≈ 3.02 µM) | MIC ([3]; 20 h, read-out: MINIMUM INHIBITORY CONCENTRATION, Cult No. 9218, MHA): 0.5 mg/L (≈ 1.51 µM) | MIC ([3]; 20 h, read-out: MINIMUM INHIBITORY CONCENTRATION, Cult No. 9271, MHA): 0.5 mg/L (≈ 1.51 µM) | MIC ([3]; UC6685, 20 h, read-out: Minimum Inhibitory Concentration, S. aureus UC 6685, Table CI): 0.25 mg/L (≈ 0.754 µM) | MIC ([3]; UC9213, 20 h, read-out: Minimum Inhibitory Concentration, S. aureus UC 9213, Table CI): 1 mg/L (≈ 3.02 µM) | MIC ([3]; UC9218, 20 h, read-out: Minimum Inhibitory Concentration, S. aureus UC 9218, Table CI): 0.5 mg/L (≈ 1.51 µM) | MIC ([3]; UC9271, 20 h, read-out: Minimum Inhibitory Concentration, S. aureus UC 9271, Table CI): 0.5 mg/L (≈ 1.51 µM) | MIC [4, 16]: 0.03 mg/L (≈ 0.0905 µM) | MIC ([4]; UC12081, 20 h, read-out: Minimum Inhibitory Concentration): 0.03 mg/L (≈ 0.0905 µM) | MIC [5, 16]: < 0.008 mg/L | MIC ([5]; Citrobacter freundii, UC3507, 20 h, read-out: Minimum Inhibitory Concentration): < 0.008 mg/L | MIC ([6]; read-out: MINIMUM INHIBITORY CONCENTRATION): 0.125 mg/L (≈ 0.377 µM) | MIC ([6]; read-out: Minimum Inhibitory Concentration): 0.06 mg/L (≈ 0.181 µM) | MINIMUM INHIBITORY CONCENTRATION ([7]; Cult No. 41, MHA): 0.5 mcg per ml and 0.25 mcg per ml | MIC ([7]; 20 h, read-out: MINIMUM INHIBITORY CONCENTRATION, Cult No. 41, MHA): 0.5 mg/L (≈ 1.51 µM) | MIC ([7]; UC41, 20 h, read-out: Minimum Inhibitory Concentration, S. pneumoniae UC 41, Table CI): 0.5 mg/L (≈ 1.51 µM) | MINIMUM INHIBITORY CONCENTRATION ([8]; Cult No. 9679, MHA): 0.03 mcg per ml and 0.015 mcg per ml | MIC ([8]; 20 h, read-out: MINIMUM INHIBITORY CONCENTRATION, Cult No. 9679, MHA): 0.015 mg/L (≈ 0.0453 µM) | MIC ([8]; UC9679, 20 h, read-out: Minimum Inhibitory Concentration, P. penneri UC 9679, Table CI): 0.015 mg/L (≈ 0.0453 µM) | MIC [9, 16]: 0.5 mg/L (≈ 1.51 µM) | MIC ([9]; UC9217, 20 h, read-out: Minimum Inhibitory Concentration): 0.5 mg/L (≈ 1.51 µM) | MIC ([10]; 20 h, read-out: MINIMUM INHIBITORY CONCENTRATION, Cult No. 12170, MHA): 0.25 mg/L (≈ 0.754 µM) | MIC ([10]; UC12170, 20 h, read-out: Minimum Inhibitory Concentration, A. calcoaceticus UC 12170, Table CI): 0.25 mg/L (≈ 0.754 µM) | MINIMUM INHIBITORY CONCENTRATION ([10]; Cult No. 12170, MHA): 0.25 mcg per ml and 0.125 mcg per ml | MINIMUM INHIBITORY CONCENTRATION ([11]; Cult No. 9855, MHA): 0.015 mcg per ml and 0.03 mcg per ml | MINIMUM INHIBITORY CONCENTRATION ([11]; Cult No. 9952, MHA): 0.015 mcg per ml and < 0.008 mcg per ml | MIC ([11]; 20 h, read-out: MINIMUM INHIBITORY CONCENTRATION, Cult No. 6674, MHA): 0.015 mg/L (≈ 0.0453 µM) | MIC ([11]; 20 h, read-out: MINIMUM INHIBITORY CONCENTRATION, Cult No. 9451, MHA): 0.015 mg/L (≈ 0.0453 µM) | MIC ([11]; 20 h, read-out: MINIMUM INHIBITORY CONCENTRATION, Cult No. 9855, MHA): 0.015 mg/L (≈ 0.0453 µM) | MIC ([11]; 20 h, read-out: MINIMUM INHIBITORY CONCENTRATION, Cult No. 9952, MHA): 0.015 mg/L (≈ 0.0453 µM) | MIC ([11]; UC6674, 20 h, E. coli UC 6674, Table CI, read-out: Minimum Inhibitory Concentration): 0.015 mg/L (≈ 0.0453 µM) | MIC ([11]; UC9451, 20 h, E. coli UC 9451, Table CI, read-out: Minimum Inhibitory Concentration): 0.015 mg/L (≈ 0.0453 µM) | MIC ([11]; UC9855, 20 h, E. coli UC 9855, Table CI, read-out: Minimum Inhibitory Concentration): 0.015 mg/L (≈ 0.0453 µM) | MIC ([11]; UC9952, 20 h, E. coli UC 9952, Table CI, read-out: Minimum Inhibitory Concentration): < 0.008 mg/L | MIC [12]: 0.06 mg/L (≈ 0.181 µM) | MINIMUM INHIBITORY CONCENTRATION ([13]; Cult No. 9191, MHA): 0.25 mcg per ml and 0.125 mcg per ml | MIC ([13]; 20 h, read-out: MINIMUM INHIBITORY CONCENTRATION, Cult No. 6676, MHA): 0.5 mg/L (≈ 1.51 µM) | MIC ([13]; 20 h, read-out: MINIMUM INHIBITORY CONCENTRATION, Cult No. 9191, MHA): 0.25 mg/L (≈ 0.754 µM) | MIC ([13]; 20 h, read-out: MINIMUM INHIBITORY CONCENTRATION, Cult No. 12120, MHA): 0.125 mg/L (≈ 0.377 µM) | MIC ([13]; UC6676, 20 h, read-out: Minimum Inhibitory Concentration, Ps. aeruginosa UC 6676, Table CI): 0.5 mg/L (≈ 1.51 µM) | MIC ([13]; UC9191, 20 h, read-out: Minimum Inhibitory Concentration, Ps. aeruginosa UC 9191, Table CI): 0.125 mg/L (≈ 0.377 µM) | MIC ([13]; UC12120, 20 h, read-out: Minimum Inhibitory Concentration, Ps. aeruginosa UC 12120, Table CI): 0.125 mg/L (≈ 0.377 µM) | Growth Inhibition Zone, SA ([14]; Conc 1 mg/ml, 0.10 ml per disk): 30 mm | zone of inhibition at 1000 µg/mL ([14]; Staphylococcus aureus, UC80, read-out: Growth Inhibition Zone, SA, Conc 1 mg/ml, 0.10 ml per disk): 28 mm | zone of inhibition at 1000 µg/mL [15]: 48 mm
